Values after ≈ are worked out from the molar mass of the structure shown. Like-named read-outs stand apart in the source and are kept apart here.
How the values were obtained:
[1] = Solubility testing in buffer containing media; type: physicochemical
Method: The solubility of AOL was tested in aqueous HP-β-CD and SBE-β-CD media at various concentrations and pH levels at room temperature. Some initial tests, where the pH of the formulations was adjusted only by addition of HCl or NaOH solutions, did evidence high variation in pH and difficulties to reach the target pH. Therefore, it was decided to prepare samples containing a buffering agent to get a stable pH and to facilitate the preparation of the formulations.
A citrate buffer was used at pH 5.5 and phosphate buffer were used at pH 6.5 and 7.5. The solubility (mg/mL) is the mean of 2 independent replicates.

[2] = background statement; cited from earlier work
[3] = Chemical stability of AOL in cyclodextrin solutions by HPLC; type: physicochemical; settings: associated with HP-β-CD, conditions of Example 4
[4] = Optimal SBE-β-CD/AOL molar ratio for solubilization; type: physicochemical
Text: Using an optimized AOL/SBE-β-CD molar ratio enabled the Applicant to overcome all the aforementioned shortcomings. Indeed, the obtained formulation can be injected without exceeding the daily cyclodextrin administration threshold, solubilizes AOL without presenting a prohibiting viscosity. The chemical stability of AOL was maintained by such a formulation. […] Without willing to be bound by a theory the complex association (interaction outside the cavity of the cyclodextrin) enhances its solubility without hindering its bioavailability when the formulation is administered to a subject in need thereof.

[5] = Co-solvent addition: AOL solubility; type: physicochemical; settings: for solubility at 4 h: aqueous HP-β-CD solution, aqueous with cosolvent or surfactant or cyclodextrin, thermodynamic from solid
Method: SBE-β-CD compatible excipients, namely polyethylene glycol and polysorbate (Tween), were evaluated for their AOL aqueous solubilizing power. Screening was carried out in same conditions as that of solubilization screening by cyclodextrins (see Example 3).
Briefly, 20% (w/w) solutions of each excipient were prepared. An excess of AOL was added and the solutions were analyzed by HPLC after 4 hours of stirring.
The effect of the combination of SBE-β-CD and Tween 80 was measured in a comparative assay by solubilizing AOL in: (A) Tween 80, 10% (w/w); (B) SBE-β-CD 10% (w/w) (C) Tween 80 and SBE-β-CD 10% (w/w) each; (D) Tween 80 20% (w/w) (E) SBE-β-CD 20% (w/w); and (F) Tween 80 and SBE-β-CD 20% (w/w) each.
Further assays, resumed in Tables 7 and 8, confirmed that Tween 80/SBE-β-CD is a promising excipient mixture for the solubilization of AOL.

COc1ccc(-c2cc(=S)ss2)cc1 [AOL, 5-(4-methoxyphenyl)-3H-1,2-dithiole-3-thione]
solubility ([1]; aqueous SBE-β-CD medium with buffer, pH 5.5, aqueous with cosolvent or surfactant or cyclodextrin, SBE-β-CD 10.0% (w/w), Citrate (100 μM), room temperature, read-out: AOL solubility): 165 µg/mL (≈ 686 µM)
solubility ([1]; aqueous SBE-β-CD medium with buffer, pH 5.5, aqueous with cosolvent or surfactant or cyclodextrin, SBE-β-CD 40.0% (w/w), Citrate (100 μM), room temperature, read-out: AOL solubility): 1140 µg/mL (≈ 4730 µM)
solubility ([1]; aqueous SBE-β-CD medium with buffer, pH 6.5, aqueous with cosolvent or surfactant or cyclodextrin, SBE-β-CD 10.0% (w/w), Phosphate 6.5 (100 μM), room temperature, read-out: AOL solubility): 168 µg/mL (≈ 699 µM)
solubility ([1]; aqueous SBE-β-CD medium with buffer, pH 6.5, aqueous with cosolvent or surfactant or cyclodextrin, SBE-β-CD 40.0% (w/w), Phosphate 6.5 (100 μM), room temperature, read-out: AOL solubility): 1210 µg/mL (≈ 5020 µM)
solubility ([1]; aqueous SBE-β-CD medium with buffer, pH 7.5, aqueous with cosolvent or surfactant or cyclodextrin, SBE-β-CD 40.0% (w/w), Phosphate 7.5 (100 μM), room temperature, read-out: AOL solubility): 1180 µg/mL (≈ 4920 µM)
solubility ([1]; buffered aqueous HP-β-CD medium, pH 5.5, aqueous with cosolvent or surfactant or cyclodextrin, HP-β-CD 10.0% (w/w), Citrate (100 μM), room temperature, read-out: AOL solubility): 79 µg/mL (≈ 329 µM)
solubility ([1]; buffered aqueous HP-β-CD medium, pH 5.5, aqueous with cosolvent or surfactant or cyclodextrin, HP-β-CD 20.0% (w/w), Citrate (100 μM), room temperature, read-out: AOL solubility): 212 µg/mL (≈ 882 µM)
solubility ([1]; buffered aqueous HP-β-CD medium, pH 5.5, aqueous with cosolvent or surfactant or cyclodextrin, HP-β-CD 30.0% (w/w), Citrate (100 μM), room temperature, read-out: AOL solubility): 505 µg/mL (≈ 2100 µM)
solubility ([1]; buffered aqueous HP-β-CD medium, pH 5.5, aqueous with cosolvent or surfactant or cyclodextrin, HP-β-CD 40.0% (w/w), Citrate (100 μM), room temperature, read-out: AOL solubility): 721 µg/mL (≈ 3000 µM)
solubility ([1]; buffered aqueous HP-β-CD medium, pH 6.5, aqueous with cosolvent or surfactant or cyclodextrin, HP-β-CD 10.0% (w/w), Phosphate 6.5 (100 μM), room temperature, read-out: AOL solubility): 111 µg/mL (≈ 462 µM)
solubility ([1]; buffered aqueous HP-β-CD medium, pH 6.5, aqueous with cosolvent or surfactant or cyclodextrin, HP-β-CD 20.0% (w/w), Phosphate 6.5 (100 μM), room temperature, read-out: AOL solubility): 274 µg/mL (≈ 1140 µM)
solubility ([1]; buffered aqueous HP-β-CD medium, pH 6.5, aqueous with cosolvent or surfactant or cyclodextrin, HP-β-CD 30.0% (w/w), Phosphate 6.5 (100 μM), room temperature, read-out: AOL solubility): 480 µg/mL (≈ 2000 µM)
solubility ([1]; buffered aqueous HP-β-CD medium, pH 6.5, aqueous with cosolvent or surfactant or cyclodextrin, HP-β-CD 40.0% (w/w), Phosphate 6.5 (100 μM), room temperature, read-out: AOL solubility): 676 µg/mL (≈ 2810 µM)
solubility ([1]; buffered aqueous HP-β-CD medium, pH 7.5, aqueous with cosolvent or surfactant or cyclodextrin, HP-β-CD 10.0% (w/w), Phosphate 7.5 (100 μM), room temperature, read-out: AOL solubility): 112 µg/mL (≈ 466 µM)
solubility ([1]; buffered aqueous HP-β-CD medium, pH 7.5, aqueous with cosolvent or surfactant or cyclodextrin, HP-β-CD 20.0% (w/w), Phosphate 7.5 (100 μM), room temperature, read-out: AOL solubility): 283 µg/mL (≈ 1180 µM)
solubility ([1]; buffered aqueous HP-β-CD medium, pH 7.5, aqueous with cosolvent or surfactant or cyclodextrin, HP-β-CD 30.0% (w/w), Phosphate 7.5 (100 μM), room temperature, read-out: AOL solubility): 540 µg/mL (≈ 2250 µM)
solubility ([1]; buffered aqueous HP-β-CD medium, pH 7.5, aqueous with cosolvent or surfactant or cyclodextrin, HP-β-CD 40.0% (w/w), Phosphate 7.5 (100 μM), room temperature, read-out: AOL solubility): 723 µg/mL (≈ 3010 µM)
solubility ([1]; buffered aqueous SBE-β-CD medium, pH 5.5, aqueous with cosolvent or surfactant or cyclodextrin, SBE-β-CD 20.0% (w/w), Citrate (100 μM), room temperature, read-out: AOL solubility): 369 µg/mL (≈ 1540 µM)
solubility ([1]; buffered aqueous SBE-β-CD medium, pH 5.5, aqueous with cosolvent or surfactant or cyclodextrin, SBE-β-CD 30.0% (w/w), Citrate (100 μM), room temperature, read-out: AOL solubility): 675 µg/mL (≈ 2810 µM)
solubility ([1]; buffered aqueous SBE-β-CD medium, pH 6.5, aqueous with cosolvent or surfactant or cyclodextrin, SBE-β-CD 20.0% (w/w), Phosphate 6.5 (100 μM), room temperature, read-out: AOL solubility): 382 µg/mL (≈ 1590 µM)
solubility ([1]; buffered aqueous SBE-β-CD medium, pH 6.5, aqueous with cosolvent or surfactant or cyclodextrin, SBE-β-CD 30.0% (w/w), Phosphate 6.5 (100 μM), room temperature, read-out: AOL solubility): 676 µg/mL (≈ 2810 µM)
solubility ([1]; buffered aqueous SBE-β-CD medium, pH 7.5, aqueous with cosolvent or surfactant or cyclodextrin, SBE-β-CD 10.0% (w/w), Phosphate 7.5 (100 μM), room temperature, read-out: AOL solubility): 170 µg/mL (≈ 707 µM)
solubility ([1]; buffered aqueous SBE-β-CD medium, pH 7.5, aqueous with cosolvent or surfactant or cyclodextrin, SBE-β-CD 20.0% (w/w), Phosphate 7.5 (100 μM), room temperature, read-out: AOL solubility): 375 µg/mL (≈ 1560 µM)
solubility ([1]; buffered aqueous SBE-β-CD medium, pH 7.5, aqueous with cosolvent or surfactant or cyclodextrin, SBE-β-CD 30.0% (w/w), Phosphate 7.5 (100 μM), room temperature, read-out: AOL solubility): 685 µg/mL (≈ 2850 µM)
solubility ([1]; buffered aqueous cyclodextrin solution, pH 6.5, aqueous with cosolvent or surfactant or cyclodextrin, 40% SBE-β-cyclodextrin, pH 6.5 phosphate buffer, read-out: highest solubility value): 1210 µg/mL (≈ 5020 µM)
solubility ([1]; buffered aqueous cyclodextrin solution, pH 7.5, aqueous with cosolvent or surfactant or cyclodextrin, 40% HP-β-cyclodextrin, pH 7.5 phosphate buffer, read-out: highest solubility value): 723 µg/mL (≈ 3010 µM)
intrinsic aqueous solubility [2]: less than 0.3 mg/L
chemical stability (HPLC impurities) [3]: chemical instability
SBE-β-CD/AOL molar ratio at which optimal solubilization was observed [4]: > 29
chemical stability on storage ([5]; Tween 80 at 20% (w/w) aqueous media): chemical stability issues
solubility at 4 h ([5]; HP-β-CD 20% (w/w), Cremophor 10% (w/w)): 545 µg/mL
solubility at 4 h ([5]; HP-β-CD 20% (w/w), Cremophor 20% (w/w)): 814 µg/mL
solubility at 4 h ([5]; HP-β-CD 20% (w/w), PVP 12PF 0.5% (w/w)): 296 µg/mL
solubility at 4 h ([5]; HP-β-CD 20% (w/w), PVP 12PF 2.0% (w/w)): 291 µg/mL
solubility at 4 h ([5]; HP-β-CD 20% (w/w), Tween 80 2% (w/w)): 329 µg/mL
solubility at 4 h ([5]; HP-β-CD 20% (w/w), Tween 80 10% (w/w)): 396 µg/mL
solubility at 4 h ([5]; HP-β-CD 20% (w/w), Tween 80 20% (w/w)): 660 µg/mL
solubility at 4 h ([5]; HP-β-CD 20% (w/w), co-solvent 0% (w/w)): 283 µg/mL
solubility at 4 h ([5]; HP-β-CD 30% (w/w), Cremophor 10% (w/w)): 642 µg/mL
solubility at 4 h ([5]; HP-β-CD 30% (w/w), PVP 12PF 0.5% (w/w)): 532 µg/mL
solubility at 4 h ([5]; HP-β-CD 30% (w/w), PVP 12PF 2.0% (w/w)): 517 µg/mL
solubility at 4 h ([5]; HP-β-CD 30% (w/w), Tween 80 2% (w/w)): 426 µg/mL
solubility at 4 h ([5]; HP-β-CD 30% (w/w), Tween 80 10% (w/w)): 439 µg/mL
